ChEMBL document CHEMBL1142761, “SAR studies of 6-aryl-1,3-dihydrobenzimidazol-2-ones as progesterone receptor antagonists” (Bioorg Med Chem Lett, 2005)

Biological target: T1, Progesterone receptor (Homo sapiens, UniProt P06401)
T1 sequence (P06401 whole entry): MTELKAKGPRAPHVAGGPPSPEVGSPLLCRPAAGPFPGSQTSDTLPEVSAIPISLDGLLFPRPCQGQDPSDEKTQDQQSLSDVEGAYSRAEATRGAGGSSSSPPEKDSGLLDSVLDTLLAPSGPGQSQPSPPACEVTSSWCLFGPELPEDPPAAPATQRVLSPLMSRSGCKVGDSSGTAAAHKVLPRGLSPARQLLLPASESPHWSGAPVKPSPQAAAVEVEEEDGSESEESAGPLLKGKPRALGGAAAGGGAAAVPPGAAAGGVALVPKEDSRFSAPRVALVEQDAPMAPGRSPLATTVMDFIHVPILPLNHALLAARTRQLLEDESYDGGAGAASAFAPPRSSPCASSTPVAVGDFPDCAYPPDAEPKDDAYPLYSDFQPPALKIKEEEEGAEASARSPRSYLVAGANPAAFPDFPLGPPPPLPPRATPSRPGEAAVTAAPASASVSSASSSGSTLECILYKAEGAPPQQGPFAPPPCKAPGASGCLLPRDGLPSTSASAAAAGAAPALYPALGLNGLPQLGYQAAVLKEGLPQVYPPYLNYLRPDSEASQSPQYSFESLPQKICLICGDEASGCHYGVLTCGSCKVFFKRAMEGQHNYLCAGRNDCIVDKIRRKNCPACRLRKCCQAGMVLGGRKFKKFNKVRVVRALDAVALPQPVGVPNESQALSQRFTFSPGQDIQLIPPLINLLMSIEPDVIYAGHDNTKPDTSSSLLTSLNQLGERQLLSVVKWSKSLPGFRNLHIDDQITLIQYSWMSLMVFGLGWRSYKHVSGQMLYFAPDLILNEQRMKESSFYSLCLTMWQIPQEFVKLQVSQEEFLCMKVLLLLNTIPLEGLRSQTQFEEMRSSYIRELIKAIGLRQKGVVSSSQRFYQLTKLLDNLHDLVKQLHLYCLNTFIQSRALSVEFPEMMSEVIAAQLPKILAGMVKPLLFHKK
Assay: Progesterone receptor agonist activity in human T47D breast carcinoma cell alkaline phosphatase assay
Format: functional, cell-based

IC50	Structure (SMILES)
0.029 µM	CCC(CC)n1c(=O)[nH]c2ccc(-c3cc(F)cc(C#N)c3)cc21
0.426 µM	CCC(CC)n1c(=O)[nH]c2ccc(-c3ccc(F)c(Cl)c3)cc21
0.0117 µM	CCC(CC)n1c(=O)[nH]c2ccc(-c3ccc(C#N)n3C)cc21

Biological target: T1, Progesterone receptor
Assay: Progesterone receptor antagonist activity in human T47D breast carcinoma cell alkaline phosphatase assay

Structure (SMILES)	IC50
O=c1[nH]c2ccc(-c3ccc(F)c(F)c3)cc2n1C1CCC1	0.175 µM
CC(C)n1c(=O)[nH]c2ccc(-c3ccc(F)c(Cl)c3)cc21	0.106 µM
CC(C)n1c(O)nc2ccc(-c3ccccc3F)cc21	0.412 µM
CC(C)n1c(O)nc2ccc(-c3ccc(F)cc3)cc21	0.295 µM
N#Cc1cc(F)cc(-c2ccc3[nH]c(=O)n(-c4cccc(Cl)c4)c3c2)c1	3 µM
CC(C)n1c(O)nc2ccc(-c3ccc(F)c(F)c3)cc21	0.207 µM
Oc1nc2ccc(-c3ccc(F)c(Cl)c3)cc2n1C1CCCC1	0.135 µM
N#Cc1cc(F)cc(-c2ccc3[nH]c(=O)n(-c4ccccc4)c3c2)c1	0.137 µM
Oc1nc2ccc(-c3ccc(F)c(Cl)c3)cc2n1C1CCC1	0.106 µM

Further lines, results first:

IC50	Structure (SMILES)
0.0057 µM	N#Cc1cc(F)cc(-c2ccc3[nH]c(=O)n(C4CCCC4)c3c2)c1
0.0603 µM	CC(C)n1c(O)nc2ccc(-c3ccc(F)c(C#N)c3)cc21
0.0047 µM	CC(C)n1c(O)nc2ccc(-c3ccc(C#N)n3C)cc21
0.0056 µM	Cn1c(C#N)ccc1-c1ccc2[nH]c(=O)n(C3CCCC3)c2c1
0.0968 µM	O=c1[nH]c2ccc(-c3ccc(F)c(F)c3)cc2n1C1CCCC1
0.0779 µM	CC(C)n1c(=O)[nH]c2ccc(-c3cccc(F)c3)cc21
0.0836 µM	N#Cc1cc(F)cc(-c2ccc3[nH]c(=O)n(C4CCCCC4)c3c2)c1
0.0033 µM	N#Cc1cc(F)cc(-c2ccc3[nH]c(=O)n(C4CCC4)c3c2)c1
0.1 µM	CC(C)n1c(=O)[nH]c2ccc(-c3cc(Cl)cc(Cl)c3)cc21
0.0248 µM	Cc1cc(C#N)sc1-c1ccc2nc(O)n(C(C)C)c2c1
0.0296 µM	CC(C)n1c(O)nc2ccc(-c3cc(F)cc(C#N)c3)cc21
0.0109 µM	Cn1c(C#N)ccc1-c1ccc2[nH]c(=O)n(C3CCC3)c2c1
